Assays:
AMPK [1] = experiment: Western blot of p-AMPK in FHs 74 Int cells; format: cell-based, human; settings: FHs 74 Int cells; AICAR 1 mM 2 h, oleate 0.1 mM 1 h
Experimental: G. Human small intestinal cells (FHs74Int) (left panel) and RIE-1 cells (right panel) were treated with the indicated concentrations of oleate for 1 h and lysates were analyzed by western blotting. […] All data are mean+/−SD. Experiments in vitro were at least repeated three times.

FHs74Int cells = experiment: In vitro FA absorption (BODIPY FL C16) in FHs74Int cells; format: cell-based, human; settings: AICAR 1 mM 3 h, BODIPY FL C16 15 min
Experimental: All data are mean+/−SD. Experiments in vitro were at least repeated three times.
For in vitro FA absorption or lipid accumulation studies, FHs74Int and RIE-1 cells were incubated with either bovine serum albumin (BSA) (Sigma-Aldrich) or BSA-conjugated BODIPY® FL C16 (4,4-Difluoro-5,7-Dimethyl-4-Bora-3a,4a-Diaza-s-Indacene-3-Hexadecanoic Acid) (Life Technologies) for 15 min. BSA-conjugated oleate sodium was also used to treat cells for 1 h; cells were then stained with BODIPY® 493/503 (4,4-Difluoro-1,3,5,7,8-Pentamethyl-4-Bora-3a,4a-Diaza-s-Indacene) (Life Technologies). Images were observed under an FV1000 Olympus confocal microscope with a ×60, 1.35-numerical aperture oil objective (Olympus, Tokyo, Japan). Images were analyzed with Olympus FV10-ASW2.1 software. To quantify green intensity, 3 images were taken at consistent conditions and 10 cells from each image were analyzed using the area tool. […] Cells were collected, lysed and triglyceride content was measured by Triglyceride Determination Kit (Sigma-Aldrich). All experiments were carried in serum-free medium and fatty acid-free BSA was used at 0.1%.

[2] = system: mTORC1 and ERK1/2 signaling; experiment: Western blot of p-S6K1 and p-ERK1/2 in BON cells; format: cell-based, human; settings: AICAR 3 h
Experimental: (§1) FIGS. 16A-D show graphs and images illustrating Cross-talk of AMPK and mTORC1 signaling. A. Diagram of cross-talk of AMPK and mTORC1 signaling. B. Western blot analysis of BON cells treated with or without AICAR (left panel) or 1 mM AICAR and CC (10 μM) (right panel) for 3 h. C. NT EIA (upper panel) and western blotting (lower panel) on BON cells expressing control vector and myc-raptor S722A/S792A treated with AICAR (1 mM) for 3 h. D. NT EIA (upper panel) and western blotting (lower panel) on BON cells expressing control vector and NTC and TSC2 siRNA treated with AICAR (1 mM) for 3 h. *p<0.05 vs. control in vector, †p<0.05 vs. AICAR in vector (C); *p<0.05 vs. control in NTC siRNA, †p<0.05 vs. control in NTC siRNA, ‡ p<0.05 vs. AICAR in NTC siRNA (D). n=6. All data are mean+/−SD.
AMPK activation inhibits mTORC1 through raptor, a component of mTORC1, or TSC2, a negative regulator of mTORC1 signaling. […] Moreover, a stable BON overexpression cell line was generated with a mutant raptor vector in which both Ser722 and Ser792 (AMPK phosphorylation sites) are replaced by alanine. […] Together, these findings further indicate the interaction of AMPK, mTORC1 and ERK signaling in the regulation of NT secretion.

BON cells = experiment: NT secretion from BON cells (NT EIA); format: cell-based, human
Experimental: as §1, with “FIGS. 14A-C show graphs and images illustrating that FFA activates AMPK signaling and increases NT secretion. A. Plasma NT of male C57BL/6 mice (5-mo-old, n=5) 1 h after olive oil (OO) oral gavage. *p<0.05 vs. NC; n=5. B. NT EIA (upper panels) and western blotting (lower panels) on BON cells treated with or without OA for 1 h. C. NT EIA (upper panels) and western blotting (lower panels) on QGP-1 cells treated with or without OA for 1 h. *p<0.05 vs. control; n=6. All data are mean+/-SD. FIGS.” for “FIGS.”, “[…]/[…]” for “S722A/S792A”, “mean+/-SD. […]” for “mean+/−SD.”

STC-1 cells = experiment: NT release from STC-1 cells (NT EIA); format: cell-based, mouse; settings: OA 0.25 mM, phorbol myristate acetate 100 nM
Text: (§2) FIGS. 15A-B show graphs and images illustrating that FFAR1 and FFAR4 agonists increase AMPK activity. A. NT IF (left panel), NT EIA (middle panel, *p<0.05 vs. control) and western blotting (right panel) of STC-1 cells. B. Real-time PCR. GAPDH was used as the internal control (BON cell expression was arbitrarily set at 1). All data are mean+/−SD.
(§3) FFAR1 (previously known as GPR40) and FFAR4 (previously known as GPR120) are medium- to long-chain FFA G-protein-coupled receptors that have been implicated in the regulation of energy homeostasis and hormone secretion.

QGP-1 cells = experiment: NT secretion from QGP-1 cells (NT EIA); format: cell-based, human; settings: OA 1 h
Experimental: FIGS. 14A-C show graphs and images illustrating that FFA activates AMPK signaling and increases NT secretion. A. Plasma NT of male C57BL/6 mice (5-mo-old, n=5) 1 h after olive oil (OO) oral gavage. *p<0.05 vs. NC; n=5. B. NT EIA (upper panels) and western blotting (lower panels) on BON cells treated with or without OA for 1 h. C. NT EIA (upper panels) and western blotting (lower panels) on QGP-1 cells treated with or without OA for 1 h. *p<0.05 vs. control; n=6. All data are mean+/−SD. Fifty μl of media were used to measure NT levels using NT EIA Kit from Phoenix Pharmaceuticals (Burlingame, Calif.) as described previously^30-33.

AMPK [3] = experiment: Western blot of p-AMPK in STC-1 cells; format: cell-based, mouse; settings: agonists 1 μM, 90 min, or OA
Text: as §2, §3

AMPK [4] = experiment: Western blot of p-AMPK and p-ACC in QGP-1 cells; format: cell-based, human; settings: OA 1 h
Experimental: (§4) FIGS. 14A-C show graphs and images illustrating that FFA activates AMPK signaling and increases NT secretion. A. Plasma NT of male C57BL/6 mice (5-mo-old, n=5) 1 h after olive oil (OO) oral gavage. *p<0.05 vs. NC; n=5. B. NT EIA (upper panels) and western blotting (lower panels) on BON cells treated with or without OA for 1 h. C. NT EIA (upper panels) and western blotting (lower panels) on QGP-1 cells treated with or without OA for 1 h. *p<0.05 vs. control; n=6. All data are mean+/−SD. Tissues and cells were lysed with lysis buffer (Cell Signaling Technology), and equal amounts of protein were resolved on 4-12% NuPAGE BisTris gels (Life Technologies) and electrophoretically transferred to polyvinylidene difluoride (PVDF) membranes; the membranes were incubated with primary antibodies overnight at 4° C. followed by secondary antibodies conjugated with horseradish peroxidase. Membranes were developed using chemiluminescence (ECL) Western Blotting System from GE Healthcare Life Science (Piscataway, N.J.) and Thermo Scientific (Waltham, Mass.).

AMPK [5] = experiment: Western blot of p-AMPK and p-ACC in BON cells; format: cell-based, human; settings: OA 1 h
Experimental: as §4

| SMILES | oleate-stimulated p-AMPK (AMPK [1]) | FA absorption (FHs74Int cells) | expression of p-S6K1 [2] | p-ERK1/2 [2] | NT secretion (BON cells; AICAR 1 mM 3 h) | NT release (STC-1 cells) | NT secretion (QGP-1 cells) | p-AMPK expression (AMPK [3]) | phosphorylation of AMPK (p-AMPK) (AMPK [4]) | phosphorylation of acetyl-CoA carboxylase (p-ACC) (AMPK [4]) | phosphorylation of AMPK (p-AMPK) (AMPK [5]) | phosphorylation of acetyl-CoA carboxylase (p-ACC) (AMPK [5]) | NT secretion (BON cells; OA 1 h) |
| --- | --- | --- | --- | --- | --- | --- | --- | --- | --- | --- | --- | --- | --- |
| NC(=O)c1ncn([C@@H]2O[C@H](CO)[C@@H](O)[C@H]2O)c1N [AICAR, 5-aminoimidazole-4-carboxamide-1-β-D-ribofuranoside] | further increased oleate-stimulated p-AMPK | concomitantly decreased FA absorption | decreased expression of p-S6K1 | increased p-ERK1/2 | stimulated NT secretion |  |  |  |  |  |  |  |  |
| CCCCCCCC/C=C\CCCCCCCC(=O)O [OA, oleic acid] |  |  |  |  |  | stimulated NT release | stimulated NT secretion | increased p-AMPK expression | increased phosphorylation | increased phosphorylation | increased phosphorylation | increased phosphorylation | stimulated NT secretion |
